From ChEMBL document CHEMBL1155052, “Hypaphorine, an indole alkaloid from Erythrina velutina, induced sleep on normal mice” (2008)

Assays:
Type in all cases: functional
Settings in all cases: route intraperitoneal
Mus musculus [1] = test: Decrease in waking duration in C57BL mouse assessed during first hour of administration at 300 mg/kg, ip; parameters: scale not given: the % may be the effect or the level left
Mus musculus [2] = test: Increase in total sleep time in C57BL mouse assessed during first hour of administration at 300 mg/kg, ip
Mus musculus [3] = test: Increase in non-rapid eye movement sleep time in C57BL mouse assessed during first hour of administration at 300 mg/kg, ip

`C[N+](C)(C)[C@H](Cc1c[nH]c2ccccc12)C(=O)[O-]` [HYPAPHORINE] was tested, and the Activity (Mus musculus [1]) was 16%, the Activity (Mus musculus [2]) was 32% and the Activity (Mus musculus [3]) was 33%.
